Reference: patent publication US5591741A, “Fungicidal spiroheterocyclic derivatives” (American Cyanamid Company, priority 1993, dated 1997)

Experiments:
[1] = tested on: Botrytis cinerea; test: Direct protectant activity against broad bean grey mould (BCB); assay type: in vivo; conditions: direct protectant foliar spray, 600 ppm, 4 days
Description: (c) Direct protectant activity against broad bean grey mould (Botrytis cinerea; BCB) The test is a direct protectant foliar spray. The upper surfaces of leaves of broad bean plants with two leaf pairs (cv The Sutton) are sprayed with the test compound at a dosage of 600 ppm using an automated sprayline as described under (a). 24 hours after spraying the leaves are inoculated with an aqueous suspension containing 10^6 conidia/ml. For 4 days after inoculation plants are kept in a high humidity compartment at 22° C. Disease is assessed 4 days after inoculation, based on the percentage of leaf surface area covered by lesions. The extent of disease control in all the above tests is expressed as a rating compared with either an untreated control or a diluent-sprayed-control, according to the criteria: […]

[2] = tested on: Pseudocercosporella herpotrichoides; test: Activity against wheat eyespot in-vitro (PHI); assay type: cell-based; conditions: 10 ppm, 10 days, 20° C., mycelial growth
Description: (h) Activity against wheat eyespot in-vitro (Pseudocercosporella herpotrichoides; pHI) This test measures the in vitro activity of compounds against the fungus causing wheat eyespot. The test compound is dissolved or suspended in acetone and is added into 4 ml aliquots of half strength Potato Dextrose Broth (PDB) dispended in 25-compartment petri dishes to give a final concentration of 10ppm. The fungal inoculum consists of mycelial fragments of P. herpotrichoides grown in half strength PDB in shaken flasks and added to the broth to provide 5×10^4 fragments/ml broth. Petri dishes are incubated at 20° C. for 10 days until the assessment of mycelial growth. The extent of disease control in all the above tests is expressed as a rating compared with either an untreated control or a diluent-sprayed-control, according to the criteria: […]

[3] = tested on: Erysiphe graminis f.sp. hordei; test: Direct protectant activity against barley powdery mildew (EGP); assay type: in vivo; conditions: direct protectant foliar spray, 8 days
Description: (f) Direct protectant activity against barley powdery mildew (Erysiphe graminis f.sp. hordei; EGP) The test is a direct protectant foliar spray. Leaves of barley seedlings (cv Golden Promise) at the single leaf stage are sprayed with the test compound as described under (a). After drying, the plants are kept for 24 hours in a glasshouse at 18° C. and 40% R.H. Then the plants are inoculated by dusting with mildew conidia and kept at 18° C. and 40% R.H. for 8 days. Assessment is based on the percentage of leaf area covered by sporulation compared with that on leaves of control plants. The extent of disease control in all the above tests is expressed as a rating compared with either an untreated control or a diluent-sprayed-control, according to the criteria: […]

[4] = tested on: Pyricularia oryzae; assay type: in vivo; conditions: rice seedlings, direct therapeutic foliar spray, 600 ppm, 4-5 days
[5] = tested on: Erysiphe graminis f.sp. hordei; test: Activity against barley powdery mildew, direct therapeutic (EGT); assay type: in vivo; conditions: direct therapeutic foliar spray, 600 ppm, up to 7 days
Description: (e) Activity against barley powdery mildew (Erysiphe graminis f.sp. hordei; EGT) The test is a direct therapeutic foliar spray. Leaves of barley seedlings, (cv. Golden Promise) at the single leaf stage are inoculated by dusting with mildew conidia one day prior to treatment with the test compound. The inoculated plants are kept overnight at glasshouse ambient temperature (18° C.) and humidity (40%) prior to treatment. The plants are sprayed with the test compound at a dosage of 600 ppm using an automated sprayline as described under (a). After drying, plants are returned to a compartment at 18° C. and 40% humidity for up to 7 days. Assessment is based on the percentage of leaf area covered by sporulation compared with that on leaves of control plants. The extent of disease control in all the above tests is expressed as a rating compared with either an untreated control or a diluent-sprayed-control, according to the criteria: […]

[6] = tested on: Venturia inaequalis; test: Activity against apple scab in-vitro (VII); assay type: cell-based; conditions: 10 ppm, 10 days, 20° C., mycelial growth
Description: (j) Activity against apple scab in-vitro (Venturia inaequalis: VII) This test measures the in-vitro activity of compounds against V. inaequalis that causes apple scab. The test compound in acetone is added into 4 ml aliquots of half strength Potato Dextrose Broth dispensed in 25-compartment petri dishes to give final concentrations of 10 ppm. The fungal inoculum consists of mycelial fragments and spores of V. inaequalis grown on malt agar and added to the broth to provide 5×10^4 propagules/ml broth. Petri dishes are incubated at 20° C. for 10 days until the assessment of mycelial growth. The extent of disease control in all the above tests is expressed as a rating compared with either an untreated control or a diluent-sprayed-control, according to the criteria: […]

[7] = tested on: Plasmopara viticola; test: Antisporulant activity against vine downy mildew (PVA); assay type: in vivo; conditions: vine leaves, antisporulant foliar spray, 600 ppm, 750 l/ha
Description: (a) Antisporulant activity against vine downy mildew (Plasmopara viticola; PVA) The test is a direct antisporulant one using a foliar spray. The lower surfaces of leaves of whole vine plants (cv Cabernet Sauvignon), approximately 8 cm high, are inoculated by spraying with an aqueous suspension containing 5×10^4 zoosporangia/ml. The inoculated plants are kept for 24 hours at 21° C. in a high humidity compartment, then 24 hours at glasshouse ambient temperature and humidity. Infected leaves are sprayed on their lower surfaces with a solution of active material in 1:1 water/acetone containing 0.04% "TWEEN 20" (Trade Mark; a polyoxyethylene sorbitan ester surfactant). Plants are treated using an automated sprayline with an atomising nozzle. The concentration of the compound is 600 ppm, and the spray volume is 750 l/ha. After spraying, the plants are returned to normal glasshouse conditions for 96 hours and are then transferred to the high humidity compartment for 24 hours to induce sporulation. Assessment is based on the percentage of the leaf area covered by sporulation compared with that on control leaves. The extent of disease control in all the above tests is expressed as a rating compared with either an untreated control or a diluent-sprayed-control, according to the criteria: […]

[8] = tested on: Rhizoctonia solani; test: Activity against Rhizoctonia in-vitro (RSI); assay type: cell-based; conditions: 10 ppm, 10 days, 20° C., mycelial growth
Description: (i) Activity against Rhizoctonia in-vitro (Rhizoctonia solani: RSI) This test measures the in-vitro activity of compounds against R. solani that causes stem and root rots. The test compound in acetone is added into 4 ml aliquots of half strength Potato Dextrose Broth dispensed in 25-compartment petri dishes to give final concentrations of 10 ppm. The fungal inoculum consists of mycelial fragments of R. solani growth in half strength PDB in shaken culture flasks and added to the broth to provide 5×10^4 fragments/ml broth. Petri dishes are incubated at 20° C. for 10 days until the assessment of mycelial growth. The extent of disease control in all the above tests is expressed as a rating compared with either an untreated control or a diluent-sprayed-control, according to the criteria: […]

[9] = tested on: Leptosphaeria nodorum; test: Activity against wheat leafspot (LN); assay type: in vivo; conditions: direct therapeutic foliar spray, 600 ppm, 6-8 days
Description: (d) Activity against wheat leafspot (Leptosphaeria nodorum; LN.) The test is a direct therapeutic foliar spray. Leaves of wheat plants (cv Norman), at the single leaf stage, are inoculated by spraying with an aqueous suspension containing 1.5×10^6 conidia/ml. The inoculated plants are kept for 24 hours in a high humidity compartment prior to treatment. The plants are sprayed with a solution of the test compound at a dosage of 600 ppm using an automated sprayline as described under (a). After drying, the plants are kept for 6-8 days at 22° C. and moderate humidity (70%). Assessment is based on the density of lesions per leaf compared with that on leaves of control plants. The extent of disease control in all the above tests is expressed as a rating compared with either an untreated control or a diluent-sprayed-control, according to the criteria: […]

[10] = tested on: Phytophthora infestans; assay type: in vivo; conditions: tomato, direct protectant foliar spray
[11] = tested on: Alternaria solani; test: Activity against tomato early blight (AS); assay type: in vivo; conditions: Table VI; tomato seedlings, contact prophylactic foliar spray, 4 days
Description: b) Activity against tomato early blight (Alternaria solani; AS) This test measures the contact prophylactic activity of test compounds applied as a foliar spray. Tomato seedlings (cv Outdoor Girl) are grown to the stage at which the second true leaf is expanded. The plants are treated using an automated sprayline as described under (a). Test compounds are applied as solutions or suspensions in a mixture of acetone and water (50:50 v/v) containing 0.04% surfactant ("TWEEN 20"--Trade Mark). After drying the plants are kept for 24 hours in a glasshouse at 20° C. and 40% R.H., followed by inoculation of the leaf upper surfaces with a suspension of A. solani conidia containing 10^4 spores/ml. For 4 days after inoculation plants are kept moist in a humidity compartment at 21° C. Disease is assessed 4 days after inoculation, based on the percentage of leaf surface area covered by lesions when compared with control plants. The extent of disease control in all the above tests is expressed as a rating compared with either an untreated control or a diluent-sprayed-control, according to the criteria: […]

Row | SMILES | disease control rating BCB [1] | disease control rating PHI [2] | disease control rating EGP [3] | disease control rating PO [4] | disease control rating EGT [5] | disease control rating VII [6] | disease control rating PVA [7] | disease control rating RSI [8] | disease control rating LN [9] | disease control rating PIP [10] | disease control rating AS [11]
1 | CCN(CC(C)(C)C)C1COC2(CCC(C(C)(C)C)CC2)C1 (stereo not shown) [Compound 132] | 0 (less than 50% disease control) | 0 (less than 50% disease control) | 2 (greater than 80% disease control) | 0 (less than 50% disease control) | 2 (greater than 80% disease control) | 1 (about 50-80% disease control) | 0 (less than 50% disease control) | 0 (less than 50% disease control) | 0 (less than 50% disease control) | 0 (less than 50% disease control) | 0 (less than 50% disease control)
2 | CC(C)(C)C1CCC2(CC1)CC(CNC1CCCCC1)CO2 (stereo not shown) [Compound 185] | 1 (about 50-80% disease control) | 0 (less than 50% disease control) | 2 (greater than 80% disease control) | 0 (less than 50% disease control) | 2 (greater than 80% disease control) | 0 (less than 50% disease control) | 0 (less than 50% disease control) | 0 (less than 50% disease control) | 0 (less than 50% disease control) | 0 (less than 50% disease control) | 1 (about 50-80% disease control)
3 | CC1CCN(C2COC3(CCC(C(C)(C)C4CCCCC4)CC3)C2)CC1 (stereo not shown) [Compound 141] | 0 (less than 50% disease control) | 2 (greater than 80% disease control) | 2 (greater than 80% disease control) | 0 (less than 50% disease control) | 2 (greater than 80% disease control) | 2 (greater than 80% disease control) | 0 (less than 50% disease control) | 2 (greater than 80% disease control) | 1 (about 50-80% disease control) | 0 (less than 50% disease control) | 0 (less than 50% disease control)
4 | CC(C)(C)C1CCC2(CC1)CC(N)CO2 (stereo not shown) [Compound 97, 3-amino-8-t-butyl-1-oxaspiro(4,5)-decane] | 0 (less than 50% disease control) | 0 (less than 50% disease control) | 2 (greater than 80% disease control) | 0 (less than 50% disease control) | 2 (greater than 80% disease control) | 0 (less than 50% disease control) | 0 (less than 50% disease control) | 0 (less than 50% disease control) | 0 (less than 50% disease control) | 2 (greater than 80% disease control) | 0 (less than 50% disease control)
5 | CC(C)(C)C1CCC2(CC1)CC(NC1CCC3CCCCC3C1)CO2 (stereo not shown) [Compound 98] | 2 (greater than 80% disease control) | 0 (less than 50% disease control) | 2 (greater than 80% disease control) | 0 (less than 50% disease control) | 2 (greater than 80% disease control) | 2 (greater than 80% disease control) | 0 (less than 50% disease control) | 1 (about 50-80% disease control) | 0 (less than 50% disease control) | 2 (greater than 80% disease control) | 0 (less than 50% disease control)
